From patent publication US9018391B2, “Inhibitors of beta-secretase” (Boehringer Ingelheim International GmbH, priority 2012, dated 2015)

Assays:
[1] = biological target: hERG channel (Homo sapiens (Human), UniProt Q12809); assay: hERG-Channel Assay (Assay 2), whole-cell patch clamp in HEK293 cells stably transfected with hERG cDNA; assay type: cell-based; conditions: human, HEK293 cells stably transfected with hERG cDNA, pH 7.4, 35° C.
Source text: hERG-Channel Assay (Assay 2)
Cells: HEK (human embryonic kidney) 293 cells were stably transfected with hERG cDNA.
Cells were superfused with a bath solution containing (mM): NaCl (137), KCl (4.0), MgCl2 (1.0), CaCl2 (1.8), Glucose (10), HEPES (10), pH 7.4 with NaOH. Patch pipettes were made from borosilicate glass tubing using a horizontal puller and filled with pipette solution containing (mM): K-aspartate (130), MgCl2 (5.0), EGTA (5.0), K2ATP (4.0), HEPES (10.0), pH 7.2 with KOH. Resistance of the microelectrodes was in the range between 2 and 5 MΩ.
Stimulation and Recording:
Membrane currents were recorded using an EPC-10 patch clamp amplifier and PatchMaster software. hERG-mediated membrane currents were recorded at 35° C., using the whole-cell configuration of the patch-clamp technique. Transfected HEK293 cells were clamped at a holding potential of −60 mV and hERG-mediated inactivating tail currents were elicited using a pulse pattern with fixed amplitudes (activation/inactivation: 40 mV for 2000 ms; recovery: −120 mV for 2 ms; ramp to 40 mV in 2 ms; inactivating tail current: 40 mV for 50 ms) repeated at 15 s intervals. During each inter-pulse interval, 4 pulses scaled down by a factor of 0.2 were recorded for a P/n leak subtraction procedure. Rs compensation was employed up to a level that safely allowed recording devoid of ringing.
Compound Preparation and Application:
The different concentrations of the test compounds were applied sequentially on each of the different cells investigated. A steady state level of baseline current was measured for at least 6 sweeps prior to the application of the first test compound concentration.
The test compound was dissolved in DMSO to yield a master stock solution which was diluted further in DMSO to stock solutions needed for the lower concentrations. Final dilutions in extracellular buffer were prepared freshly from these stocks by a 1:1000 dilution step each before starting the experiments.
Peak current amplitudes were measured 3 ms after the ramp to +40 mV. For baseline and each concentration, the peak currents of the three last sweeps before application of the next concentration were averaged. Residual currents (I/I0) were calculated for each cell as the fraction of actual average peak current and average baseline peak current.

[2] = test system: Human Hepatocytes; assay: In Vitro Hepatocyte Stability Assay (Assay 4); assay type: in vitro ADME; conditions: predicted blood clearance as percent of hepatic blood flow
Method: In Vitro Hepatocyte Stability Assay (Assay 4)
The metabolic degradation of test compounds was assayed in a hepatocyte suspension. Cryopreserved hepatocytes were incubated in an appropriate buffer system (e.g., Dulbecco's modified eagle medium plus 3.5 μg glucagon/500 mL, 2.5 mg insulin/500 mL and 3.75 mg/500 mL hydrocortison) containing 5% species serum. Following a 30 min preincubation in an incubator (37° C., 10% CO2), 5 μl of test compound solution (80 μM; from 2 mM in DMSO stock solution diluted 1:25 with medium) were added into 395 μl hepatocyte suspension (cell density in the range 0.25−5×10^6 cells/mL, typically 1×10^6 cells/mL; final concentration of test compound final DMSO concentration […]).
The cells were incubated for six h (incubator, orbital shaker) and samples (25 μl) were taken at 0, 0.5, 1, 2, 4 and 6 h. Samples were transferred into acetonitrile and pelleted by centrifugation (5 min). The supernatant was transferred to a new 96 DeepWell™ plate, evaporated under nitrogen and resuspended. Decline of compound was analyzed by HPLC-MS/MS. CLint (in vitro hepatic intrinsic clearance) was calculated as follows: CLint=Dose/AUC=(C0/CD)/(AUD+Clast/k)×1000/60
C0: initial concentration in the incubation [μM];
CD: cell density of vital cells [cells/mL];
AUD: area under the data [μM×h];
Clast: concentration of last data point [μM];
k: slope of the regression line for compound decline [h^−1].
The calculated in vitro hepatic intrinsic clearance was scaled up to the intrinsic in vivo hepatic clearance (Clint in vivo) and used to predict hepatic in vivo blood clearance (CL) by the use of a liver model (well-stirred model), as follows: CLint,in vivo[mL/min/kg]=(CLint[μL/min/10^6 cells]×hepatocellularity[10^6 cells/g liver]×liver factor [g/kg body weight])/1000 CL[mL/min/kg]=CLint,to vivo×hepatic blood flow[ml/min/kg]/(CLint,in vivo[ml/min/kg]+hepatic blood flow[mL/min/kg])
The in vivo blood clearance was transformed into percent of the hepatic blood flow (% Qh): % Qh=CL[mL/min/kg]/hepatic blood flow[mL/min/kg])×100
Hepatocellularity, human: 1.2×10^7 cells/g liver;
Liver factor, human: 25.7 g/kg body weight;
Hepatic blood flow, human: 21 mL/(min×kg).

[3] = test system: brain amyloid peptides Aβ1-x; assay: Rat Brain Aβ Lowering Assay (Assay 5); assay type: in vivo; conditions: 3 hrs after dosing
Method: Rat Brain Aβ Lowering Assay (Assay 5)
The animals were sacrificed 3 hrs after dosing, and brains were excised, dissected into cerebellum and left and right cerebra and flash-frozen in liquid nitrogen.
The cerebrum was homogenized (5 volumes per weight) in 20 mM Tris-HCL, pH 8.5, 0.2% Triton-X100 supplemented with protease inhibitors (cOmplete, Roche Applied Science) at 4° C. using a glass Dounce homogenizer. The homogenate was centrifuged at 120,000×g for 60 min at 4° C., and the supernatant was collected and analyzed for […] using immunoassay with chemiluminescent detection (Meso-Scale Discovery, Rockville, Md. (MSD)).
Streptavidin 96-well plates (MSD) were pre-blocked with 5% Blocker A solution (MSD) for 1 hr at rt on an orbital shaker and washed 4 times with phosphate buffered saline (PBS). The wells were pre-coated with 20 ng/well of biotinylated antibody SIG-39155 (Clone M3.2, specific for amino acids 10-15 of the rodent Aβ) for 1 hr at rt and washed 4 times with PBS. For Aβ1-x analysis, 25 μl of either the cleared brain lysates or Aβ1-40 standards (8-500 pg/ml, with 2× increment) were incubated for 1 hr at rt with constant shaking. The wells were washed 4 times with PBS, and 25 μl of the detection antibody (Sulfo-TAG labeled anti-Aβ40 antibody supplied by MSD) was added and incubated for 1 hr at rt. After 4 washes with PBS, 150 μl of the chemiluminescence detection reagent (Read Buffer T, MSD) was added, and the plate was read on an MSD Sector Imager 6000 instrument. The calibration curve was fit into a non-linear four-parameter regression model, and the Aβ1-x concentrations were calculated for each well containing the cleared brain lysates. The percent of Aβ lowering was calculated based on the difference with the average Aβ concentration obtained for the brains from the animals treated with vehicle alone.

Sequence of hERG channel (Q12809 whole entry): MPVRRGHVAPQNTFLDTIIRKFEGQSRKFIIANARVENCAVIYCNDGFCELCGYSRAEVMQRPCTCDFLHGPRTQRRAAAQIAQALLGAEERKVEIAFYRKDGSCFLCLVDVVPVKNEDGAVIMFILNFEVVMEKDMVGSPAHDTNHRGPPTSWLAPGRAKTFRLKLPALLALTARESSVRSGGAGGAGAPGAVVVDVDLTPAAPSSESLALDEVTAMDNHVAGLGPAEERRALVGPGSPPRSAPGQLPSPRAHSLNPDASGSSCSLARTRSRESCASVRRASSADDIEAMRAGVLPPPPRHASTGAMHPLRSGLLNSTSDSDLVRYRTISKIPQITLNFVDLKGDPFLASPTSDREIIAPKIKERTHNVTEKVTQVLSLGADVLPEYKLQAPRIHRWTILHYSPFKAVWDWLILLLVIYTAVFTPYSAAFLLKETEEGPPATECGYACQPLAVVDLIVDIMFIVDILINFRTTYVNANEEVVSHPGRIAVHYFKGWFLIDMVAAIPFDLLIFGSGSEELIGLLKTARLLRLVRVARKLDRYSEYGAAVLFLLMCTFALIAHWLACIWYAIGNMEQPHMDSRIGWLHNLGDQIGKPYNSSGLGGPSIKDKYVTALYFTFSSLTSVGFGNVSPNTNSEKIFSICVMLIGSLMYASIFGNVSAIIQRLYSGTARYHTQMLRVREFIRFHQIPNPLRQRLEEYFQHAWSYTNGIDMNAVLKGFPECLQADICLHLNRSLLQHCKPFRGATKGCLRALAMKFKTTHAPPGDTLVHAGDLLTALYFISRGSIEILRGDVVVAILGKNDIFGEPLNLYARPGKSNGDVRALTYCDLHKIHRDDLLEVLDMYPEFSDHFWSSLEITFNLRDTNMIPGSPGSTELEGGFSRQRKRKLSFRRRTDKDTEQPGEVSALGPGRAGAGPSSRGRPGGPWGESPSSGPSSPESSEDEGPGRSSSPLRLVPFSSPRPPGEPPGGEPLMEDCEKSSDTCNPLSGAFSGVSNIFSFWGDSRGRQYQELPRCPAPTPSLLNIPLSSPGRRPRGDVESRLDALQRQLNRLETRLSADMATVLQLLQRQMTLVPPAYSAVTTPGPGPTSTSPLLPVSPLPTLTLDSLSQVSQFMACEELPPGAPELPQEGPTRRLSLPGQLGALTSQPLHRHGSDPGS

Row | SMILES | inhibition at 10 µM [1] | In vitro Human Hepatocytes % Qh @ 1 μM (assay 4) [2] | % Aβ Reduction ([3]; single oral dose 25 mg/kg) | % Aβ Reduction ([3]; single oral dose 12.5 mg/kg)
1 | CC[C@@H]1C[C@@]2(Cc3ccc(C#N)cc3[C@]23N=C(N)N(CC(C)(C)F)C3=O)C[C@H](C)[C@H]1O [Example 7] | 15% | 13 % Qh | 58% | –
2 | C[C@@H]1C[C@@]2(Cc3ccc(C#N)cc3[C@]23N=C(N)N(CCC(F)(F)F)C3=O)C[C@H](C)[C@H]1O [Example 1] | 13% | 0 % Qh | 25% | –
3 | C[C@@H]1C[C@@]2(Cc3ccc(C#N)cc3[C@]23N=C(N)N(CC(C)(C)F)C3=O)C[C@H](C)[C@H]1O [Example 2] | 4.5% | 1.6 % Qh | – | 40%
4 | C[C@@H]1C[C@@]2(Cc3ccc(C#N)cc3[C@]23N=C(N)N(CC2(F)CCOCC2)C3=O)C[C@H](C)[C@H]1O [Example 4] | 13% | 6.1 % Qh | – | 21%
5 | CC[C@@H]1C[C@]2(CC[C@H]1O)Cc1ccc(C#N)cc1[C@]21N=C(N)N(CC(C)(C)F)C1=O [Example 9] | 2.5% | 12.4 % Qh | 42% | –
